{"source": "paper PMC9897792", "about": "“Discovery of novel 2-(4-(benzyloxy)-5-(hydroxyl) phenyl) benzothiazole derivatives as multifunctional MAO-B inhibitors for the treatment of Parkinson’s disease” (Journal of Enzyme Inhibition and Medicinal Chemistry, 2023)", "assay_type_in_all_cases": "cell-based", "key": {"[1]": {"system": "ROS release in LPS-treated BV-2 cells", "experiment": "LPS-induced ROS release in BV-2 cells (DCFH-DA probe)", "conditions": "concentration not given, LPS 1.0 µg/mL", "method": "The inhibitory effect of 3h on LPS-induced ROS release in BV-2 cells in vitro was detected by using 2′,7′-dichlorofluorescein diacetate (DCFH-DA) as probe to quantify the ROS level in LPS-treated BV-2 cells. Noticeably, the fluorescence intensity of control group was relatively low, indicating low level of ROS. […] The fluorescence values were further detected by using microplate reader (Figure 9(B)), and then the inhibition rates were calculated. […] BV-2 cells were incubated with test compound solution (10 µL) for 30 min, then LPS (10 µL, 1.0 µg/ml in PBS) was added to each well, and each well would be incubated for another 30 min at 37 °C. […] The fluorescence was measured with excitation and emission wavelengths at 488 and 525 nm on an inverted fluorescence microscope."}, "BV-2 cells": {"system": "BV-2 cells", "experiment": "Cytotoxicity towards BV-2 cells with or without LPS (MTT)", "conditions": "up to 10.0 µM in the presence or absence LPS (1.0 µg/mL)", "method": "The in vitro anti-neuroinflammatory activity of 3h was detected by using LPS-induced inflammation mode in BV-2 cells, with resveratrol as the positive control compound[45]. The cytotoxicities of resveratrol and 3h to BV-2 cells were firstly detected by MTT method.\nFirstly, the MTT method was carried out to determine the cytotoxicity of 3h towards BV-2 cell line[45]. BV-2 cells in the logarithmic phase were seeded into 96-well cell culture plate, followed by the incubation at 37 °C for 24 h at the atmosphere of 5% CO2. After incubation, the culture was replaced by fresh one (90 µL without serum), and test compound solution (10 µL) was added. Then, the mixture was incubated for another 30 min, and MTT (100 µL, 0.5 mg/ml in PBS) was added to each well. After the final incubation at 37 °C for 4 h, the supernatants were removed, and the formazan was dissolved in 200 µL of DMSO. Then, the absorbance at 490 nm was determined by using a Varioskan Flash Multimode Reader (Thermo Scientific). As for the method to evaluate the cytotoxicity of 3h towards LPS-stimulated BV-2 cells, the procedures were almost similar, but after the incubation of cells with 3h, LPS (10 µL, 1.0 µg/mL) was added, and the mixture was further incubated for 24 h."}, "PC-12 cells [2]": {"system": "PC-12 cells", "experiment": "Neuroprotective effect on H2O2 induced PC-12 cells injury (MTT)", "conditions": "10.0 µM; H2O2 100 µM (model 50.1%)", "method": "(§1) MTT method was used to detect the in vitro neuroprotective effect of 3h on H2O2 induced PC-12 cells injury, with resveratrol as positive control. Firstly, the cytotoxicity of 3h to PC-12 cells was measured. […] […].\n(§2) 3-(4,5-dimethylthiazol-2-yl)-2,5-diphenyltetrazolium bromide (MTT) method was conducted to measure the in vitro neuroprotective effect of 3h[44]. Firstly the cytotoxicity of 3h towards PC-12 cells was detected. In detail, PC-12 cells were seeded into 96-well cell culture plate in DMEM (100 µL, 1 × 10^5 cells per mL) firstly. Then, these cells were incubated at 37 °C for 24 h. After incubation, test compound solutions (10 µL) were added to the plate, and the mixture was incubated for another 2 h at 37 °C. Then, MTT solution (100 µL, 5 mg/ml in PBS) was added to each well, which would be incubated at 37 °C for final 4 h. After the final incubation, the supernatants were removed, and the formazan was dissolved in DMSO (150 µL). Then, the absorbance at 490 nm was determined by using a Varioskan Flash Multimode Reader (Thermo Scientific). As for the assay to evaluate the neuroprotective effect of 3h, the procedures were almost similar, but after the incubation of cells with 3h, H2O2 (100 µM) was added and the mixture was further incubated for 24 h."}, "[3]": {"system": "TNF-α production in LPS-activated BV-2 microglia cells", "experiment": "LPS-induced TNF-α production in BV-2 cells (ELISA)", "conditions": "Mus musculus, 10.0 µM, LPS 1.0 µg/mL, read-out: inhibition rate of LPS-induced TNF-α production", "method": "ELISA method was carried out to detect the inhibitory effects of 3h on LPS-induced TNF-α production. As shown in Figure 8(B), the level of TNF-α expression was dramatically raised when BV-2 cells were exposed to LPS (1.0 µg/mL).\n(§3) ELISA and Griess reaction methods were performed to detect the inhibitory effect of 3h on the release of TNF-α and NO in LPS-stimulated BV-2 cells[46]^,[47]. BV-2 cells in the logarithmic phase were seeded into 96-well cell culture plate, and these cells were incubated at 37 °C for 24 h at the atmosphere of 5% CO2. After incubation, the culture solution was replaced by fresh one (90 µL without serum), and test compound solution (10 µL) was added. After addition, the plate was incubated for 30 min, then LPS (10 µL, 1.0 µg/ml in PBS) was added to each well, and the mixture would be incubated for another 24 h at 37 °C. After the final incubation, the supernatants were taken out to measure the level of TNF-α and NO according to the procedures depicted on the kits (kits were purchased from Nanjing Jiancheng Bioengineering Institute)."}, "PC-12 cells [4]": {"system": "PC-12 cells", "experiment": "Cytotoxicity towards PC-12 cells (MTT)", "conditions": "at the concentration of 10.0 µM", "method": "as §1, §2"}, "[5]": {"system": "NO release in LPS-activated BV-2 microglia cells", "experiment": "LPS-induced NO release in BV-2 cells (Griess method)", "conditions": "Mus musculus, 10.0 µM, LPS 1.0 µg/mL, read-out: inhibitory rate of LPS-induced NO release", "method": "Then, Griess method was performed to measure the inhibitory effect of 3h on LPS-induced NO release in BV-2 cells. […] It reflected that LPS could induce the activation of BV-2 cells and induce neuroinflammation.\nas §3"}}}
{"smiles": "Oc1ccc(/C=C/c2cc(O)cc(O)c2)cc1", "note": "[resveratrol, reference compound]", "values": [{"measurement": "inhibition rate of LPS-induced ROS release", "setting": "[1]", "result": 59.8, "unit": "%"}, {"measurement": "BV-2 cell viability (cytotoxicity)", "setting": "BV-2 cells", "result": "did not significantly alter the BV-2 cell viability"}, {"measurement": "cell viability of H2O2-injured PC-12 cells", "setting": "PC-12 cells [2]", "result": "64.3 % of control value"}, {"measurement": "inhibition at 10 µM", "setting": "[3]", "result": 50.3, "unit": "%"}, {"measurement": "PC-12 cell viability (cytotoxicity)", "setting": "PC-12 cells [4]", "result": "did not significantly alter the PC-12 cell viability"}, {"measurement": "inhibition at 10 µM", "setting": "[5]", "result": 51.2, "unit": "%"}]}
